Test results from US20250019385A1, “SPIROCYCLIC ANNULATED 2-AMINO-3-CYANO THIOPHENES AND DERIVATIVES FOR THE TREATMENT OF CANCER” (Boehringer Ingelheim International GmbH, priority 2023, published 2025).

Columns and labels:
[1] = biological target: KRAS (WT)::CRAF protein::protein interaction (Homo sapiens (Human), UniProt P01116); test: KRAS TR-FRET assay (KRAS WT::CRAF, GTP); type: binding
Protocol: (§1) This assay measures the inhibitory effect of compounds on KRAS::CRAF protein::protein interactions in the presence of GTP using Time-resolved fluorescence energy transfer (TR-FRET).
(§2) The following wildtype or mutant alleles of KRAS and CRAF protein have been used at the given concentrations:
KRAS (WT) 1-169, N-terminal 6His-tag, C-terminal avi-tag (Boehringer Ingelheim in house protein prep); final assay concentration 15 nM.
(§3) CRAF Ras binding domain, GST-tag, TEV cleavage site (Boehringer Ingelheim in house protein prep); final assay concentration 15 nM.
(§4) Test compounds dissolved in DMSO were dispensed onto assay plates (Proxiplate 384 PLUS, white, PerkinElmer; 6008289) using an Access Labcyte Workstation with the Labcyte Echo 55x. For the chosen highest assay concentration of 100 μM, 150 nl of compound solution was transferred from a 10 mM DMSO compound stock solution. A series of eleven fivefold dilutions per compound was transferred to the assay plate, compound dilutions were tested in duplicates. DMSO was added as backfill to a total volume of 150 nl.
(§5) The assay runs on a fully automated robotic system. To 150 nl of compound dilution 15 μl of a mix including the respective KRAS allele, CRAF (e.g. KRAS (G12D)::CRAF; final assay concentrations see above), GTP nucleotide (Sigma G8877; final assay concentration 10 μM), Lance Eu—W1024 labeled Streptavidin (PerkinElmer, Cat No AD0063; final assay concentration 1.5 nM) and Anti-GST surelight APC (PerkinElmer, Cat No AD0059G; final assay concentration 30 nM) in assay buffer (1×PBS, 0.1% BSA, 0.05% Tween 20) are added into columns 1-23 and 15 μL of the solution without the respective KRAS allele were added to row 24.
(§6) Plates are kept at room temperature in a darkened incubator. After 60 minutes incubation time the signal is measured in a PerkinElmer Envision HTS Multilabel Reader using the TR-FRET LANCE Ultra specs from PerkinElmer.
(§7) Each plate contains 16 wells of a negative control (diluted DMSO instead of test compound; w respective KRAS allele; column 23) and 16 wells of a positive control (diluted DMSO instead of test compound; w/o respective KRAS allele; column 24).
(§8) IC50 values were calculated and analyzed with Boehringer Ingelheim's MEGALAB 50 application using a 4 parametric logistic model.
(§9) Tables of example compounds disclosed herein contain IC50 values determined using the above assays (see Table 44).

[2] = biological target: KRAS (G12V)::CRAF protein::protein interaction (Homo sapiens (Human), UniProt P01116, C118S/G12V); test: KRAS TR-FRET assay (KRAS G12V::CRAF, GTP); type: binding
KRAS (G12V)::CRAF protein::protein interaction, sequence (P01116 other isoform, or with tags, fused parts or gaps G12V/C118S): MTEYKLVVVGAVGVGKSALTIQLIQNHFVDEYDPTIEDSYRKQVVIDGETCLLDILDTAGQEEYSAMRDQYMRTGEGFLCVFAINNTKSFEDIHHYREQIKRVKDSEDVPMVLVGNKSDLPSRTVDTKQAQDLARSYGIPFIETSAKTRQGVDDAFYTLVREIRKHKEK
Protocol: as §1, §2
KRAS (G12V) 1-169, C118S, N-terminal 6His-tag, C-terminal avi-tag (Boehringer Ingelheim in house protein prep); final assay concentration 15 nM.
as §3, §4, §5, §6, §7, §8, §9

CYP3A4 = CYP3A4 (Homo sapiens (Human), UniProt P08684); test: Mechanism based inhibition of CYP3A4 assay (MBI 3A4); type: in vitro ADME; conditions: human liver microsomes, 25 uM compound; hydroxy-midazolam formation after 30 min preincubation relative to 0 min
CYP3A4, sequence (P08684 whole entry): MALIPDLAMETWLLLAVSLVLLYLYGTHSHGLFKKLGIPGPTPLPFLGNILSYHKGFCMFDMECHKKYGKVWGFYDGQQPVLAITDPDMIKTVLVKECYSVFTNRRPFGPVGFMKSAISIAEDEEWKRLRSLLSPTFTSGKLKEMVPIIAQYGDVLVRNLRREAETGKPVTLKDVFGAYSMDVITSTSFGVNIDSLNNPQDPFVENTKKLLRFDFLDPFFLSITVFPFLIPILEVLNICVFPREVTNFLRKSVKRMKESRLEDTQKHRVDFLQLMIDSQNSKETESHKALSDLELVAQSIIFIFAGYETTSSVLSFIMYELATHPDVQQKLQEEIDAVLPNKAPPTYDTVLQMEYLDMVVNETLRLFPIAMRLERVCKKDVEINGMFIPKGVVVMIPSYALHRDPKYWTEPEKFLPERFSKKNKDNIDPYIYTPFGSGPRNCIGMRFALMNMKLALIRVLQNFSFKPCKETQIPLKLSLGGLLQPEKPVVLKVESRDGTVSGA
Protocol: The time dependent inhibition towards CYP3A4 is assayed in human liver microsomes (0.02 mg/mL) with midazolam (15 μM) as a substrate. The test compounds and water control (wells w/o test compound) are preincubated in presence of NADPH (1 mM) with human liver microsomes (0.2 mg/mL) at a concentration of 25 uM for 0 min and 30 min. After preincubation, the incubate is diluted 1:10 and the substrate midazolam is added for the main incubation (15 min). The main incubation is quenched with acetonitrile and the formation of hydroxy-midazolam is quantified via LC/MS-MS. The formation of hydroxy-midazolam from the 30 min preincubation relative to the formation from the 0 min preincubation is used as a readout. Values of less than 100% mean that the substrate midazolam is metabolized to a lower extent upon 30 min preincubation compared to 0 min preincubation. In general low effects upon 30 min preincubation are desired (corresponding to values close to 100%/not different to the values determined with water control).

Caco-2 cell monolayers = test: Caco-2 assay (permeability and efflux ratio); type: in vitro ADME; conditions: 10 μM

KRAS (WT)::CRAF protein::protein interaction, sequence (P01116 other isoform, or with tags, fused parts or gaps): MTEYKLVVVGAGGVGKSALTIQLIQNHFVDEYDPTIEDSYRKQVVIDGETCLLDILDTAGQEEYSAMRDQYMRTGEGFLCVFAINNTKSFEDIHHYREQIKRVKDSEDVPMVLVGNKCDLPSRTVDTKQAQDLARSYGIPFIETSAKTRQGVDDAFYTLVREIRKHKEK

| IC50 [1] | IC50 [2] | MBI 3A4 (CYP3A4) | Structure (SMILES) | Caco PappAB (Caco-2 cell monolayers; Caco-2 apical to basolateral permeability, pH 7.4) | Caco ER (Caco-2 cell monolayers; Caco-2 efflux ratio PappBA/PappAB) |
| --- | --- | --- | --- | --- | --- |
| 50 nM | 22 nM | 83% | C[C@H](Oc1nc(-c2onc3c2CCC[C@@]32CCCc3sc(N)c(C#N)c32)nc2c1n(C)c(=O)n2[C@@H]1CCOC1)[C@@H]1CC[C@H](C)N1C [I-26] | – | – |
| 45 nM | 20 nM | 61% | C[C@H](Oc1nc(-c2onc3c2CCC[C@@]32CCCc3sc(N)c(C#N)c32)nc2c1[nH]c(=O)n2[C@@H]1CCOC1)[C@@H]1CCCN1C [I-8] | – | – |

| Structure (SMILES) | IC50 [1] | IC50 [2] | MBI 3A4 (CYP3A4) | Caco PappAB (Caco-2 cell monolayers; Caco-2 apical to basolateral permeability, pH 7.4) | Caco ER (Caco-2 cell monolayers; Caco-2 efflux ratio PappBA/PappAB) |
| --- | --- | --- | --- | --- | --- |
| C[C@H](Oc1nc(-c2noc3c2CCC[C@@]32CCCc3sc(N)c(C#N)c32)nc2c1CC[C@]21CNCCO1)[C@@H]1C[C@@H](F)CN1C [II-20] | 815 nM | 129 nM | 95% | 0.3 ×10⁻⁶ cm/s | 303.8 |
